The subject of the experiment is CD2F1 mice, L1210 leukemia ip, survival T/C. Nature of the experiment: NCI In Vivo Anticancer Drug Screen. Data for tumor model L1210 Leukemia (intraperitoneal) in CD2F1 (CDF1) mice. Conditions: higher = longer survival. The essentials: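 Antitumor effect is scored in animals hosting a serially transplanted tumor. Values compare compound-dosed animals against vehicle-only controls as a simple quotient.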

The mark [1] stands for this setting: endpoint: mean survival time, dose: 50.0 mg/kg/injection, schedule: Q01DX009 (ip), vehicle: saline with Tween-80.
Setting [2] is: endpoint: mean survival time, dose: 100.0 mg/kg/injection, schedule: Q01DX009 (ip), vehicle: saline with Tween-80.
Setting [3] is: endpoint: mean survival time, dose: 200.0 mg/kg/injection, schedule: Q01DX009 (ip), vehicle: saline with Tween-80.
[4] abbreviates: endpoint: mean survival time, dose: 100.0 mg/kg/injection, schedule: Q04DX003 (ip), vehicle: saline with Tween-80.
Setting [5] is: endpoint: mean survival time, dose: 200.0 mg/kg/injection, schedule: Q04DX003 (ip), vehicle: saline with Tween-80.
The mark [6] stands for this setting: endpoint: mean survival time, dose: 400.0 mg/kg/injection, schedule: Q04DX003 (ip), vehicle: saline with Tween-80.
Where [7] appears, read: endpoint: mean survival time, dose: 6.25 mg/kg/injection, schedule: Q01DX009 (ip), vehicle: saline with Tween-80.
Setting [8] is: endpoint: mean survival time, dose: 12.5 mg/kg/injection, schedule: Q01DX009 (ip), vehicle: saline with Tween-80.
The mark [9] stands for this setting: endpoint: mean survival time, dose: 100.0 mg/kg/injection, schedule: Q04DX003 (ip), vehicle: saline.
Setting [10] is: endpoint: mean survival time, dose: 200.0 mg/kg/injection, schedule: Q04DX003 (ip), vehicle: saline.
Where [11] appears, read: endpoint: mean survival time, dose: 400.0 mg/kg/injection, schedule: Q04DX003 (ip), vehicle: saline.
The mark [12] stands for this setting: endpoint: mean survival time, dose: 75.0 mg/kg/injection, schedule: Q01DX001 (ip), vehicle: saline.
[13] abbreviates: endpoint: mean survival time, dose: 150.0 mg/kg/injection, schedule: Q01DX001 (ip), vehicle: saline.
[14] abbreviates: endpoint: mean survival time, dose: 300.0 mg/kg/injection, schedule: Q01DX001 (ip), vehicle: saline.

Where “and” joins values, the source holds several entries; their conditions need not be identical. Identical values can stand only once. Inconclusive results and toxic doses are left out.

This note sets out measurements from PubChem BioAssay AID256 (DTP/NCI, 2004).

Take `O=C1c2cc(Cl)ccc2-c2c(Cl)cc(Cl)cc21`: the T/C was 92 % of control under setting [1], 101 % of control under setting [2] and 89 % of control under setting [3].

Turning to `O=C(OCC1OC(n2cc(C(F)(F)F)c(=O)[nH]c2=O)CC1OC(=O)c1ccc([N+](=O)[O-])cc1)c1ccc([N+](=O)[O-])cc1` (configuration not stated), the T/C is, setting by setting: (endpoint: median survival time, dose: 25.0 mg/kg/injection, schedule: Q01DX009 (ip), vehicle: Klucel (hydroxypropylcellulose) (HPC)) 116 % of control; (endpoint: median survival time, dose: 50.0 mg/kg/injection, schedule: Q01DX009 (ip), vehicle: Klucel (hydroxypropylcellulose) (HPC)) 113 % of control.

As for `NC(=S)NNc1ccccn1`, the T/C (endpoint: mean survival time, dose: 25.0 mg/kg/injection, schedule: Q04DX002 (ip), vehicle: saline) is 106 % of control and the T/C (endpoint: mean survival time, dose: 50.0 mg/kg/injection, schedule: Q04DX002 (ip), vehicle: saline) was 108 % of control.

On to `CSc1ccc(OC(=O)Nc2ccc(C)c([N+](=O)[O-])c2)cc1C`, for which the T/C reads like this: under setting [4], 92 % of control; under setting [5], 92 % of control; under setting [6], 96 % of control.

On to `CN(C)Cc1ccccc1`, for which the T/C is, setting by setting: (endpoint: mean survival time, dose: 100.0 mg/kg/injection, schedule: Q01DX001 (ip), vehicle: saline with Tween-80) 104 % of control; (endpoint: mean survival time, dose: 200.0 mg/kg/injection, schedule: Q01DX001 (ip), vehicle: saline with Tween-80) 110 % of control.

Take `c1ccc2c(c1)nnn1c3cnccc3nc21`: the T/C (endpoint: mean survival time, dose: 1.56 mg/kg/injection, schedule: Q01DX009 (ip), vehicle: saline with Tween-80) was 101 % of control and 105 % of control; the T/C (endpoint: mean survival time, dose: 3.12 mg/kg/injection, schedule: Q01DX009 (ip), vehicle: saline with Tween-80) is 94 % of control and 100 % of control; the T/C (endpoint: mean survival time, dose: 5.0 mg/kg/injection, schedule: Q01DX001 (ip), vehicle: saline) is 98 % of control; the T/C under setting [7] is 97 % of control and 103 % of control; the T/C (endpoint: mean survival time, dose: 10.0 mg/kg/injection, schedule: Q01DX001 (ip), vehicle: saline) was 101 % of control; the T/C under setting [8] is 101 % of control. For the same molecule, the T/C was 98 % of control (endpoint: mean survival time, dose: 20.0 mg/kg/injection, schedule: Q01DX001 (ip), vehicle: saline) and 103 % of control (endpoint: mean survival time, dose: 25.0 mg/kg/injection, schedule: Q01DX009 (ip), vehicle: saline with Tween-80).

For the molecule `O=C(Nc1nc2c(ccc3ccccc32)s1)Nc1ccccc1F`, the T/C under setting [1] was 94 % of control, the T/C under setting [2] is 97 % of control and the T/C under setting [3] was 105 % of control.

For `CC(=O)N[C@H](CO)[C@H](O)c1ccc([N+](=O)[O-])cc1`, the T/C by setting is: (endpoint: mean survival time, dose: 75.0 mg/kg/injection, schedule: Q01DX009 (ip), vehicle: saline with Tween-80) 96 % of control; (endpoint: mean survival time, dose: 150.0 mg/kg/injection, schedule: Q01DX009 (ip), vehicle: saline with Tween-80) 96 % of control; (endpoint: mean survival time, dose: 300.0 mg/kg/injection, schedule: Q01DX009 (ip), vehicle: saline with Tween-80) 95 % of control.

`CC(=O)OCC1OC(OC(C)=O)C(OC(C)=O)C(OC(C)=O)C1OC(C)=O` (configuration not stated): the T/C runs as follows: under setting [9], 95 % of control; under setting [10], 98 % of control; under setting [11], 97 % of control.

Turning to `O=C1C=CN(C2OC(CO)C(O)C2O)C(=O)C1` (configuration not stated), the T/C was 120 % of control under setting [7]; 124 % of control under setting [8]; 113 % of control (endpoint: mean survival time, dose: 75.0 mg/kg/injection, schedule: Q01DX005 (ip), vehicle: saline); 102 % of control under setting [2]; 122 % of control (endpoint: mean survival time, dose: 150.0 mg/kg/injection, schedule: Q01DX005 (ip), vehicle: saline); 124 % of control (endpoint: mean survival time, dose: 150.0 mg/kg/injection, schedule: Q01DX005 (iv), vehicle: saline). Moreover, the T/C by setting is: under setting [3], 113 % of control; (endpoint: mean survival time, dose: 300.0 mg/kg/injection, schedule: Q01DX005 (ip), vehicle: saline) 101 % of control; (endpoint: mean survival time, dose: 300.0 mg/kg/injection, schedule: Q01DX005 (iv), vehicle: saline) 116 % of control; (endpoint: mean survival time, dose: 400.0 mg/kg/injection, schedule: Q01DX009 (ip), vehicle: saline with Tween-80) 93 % of control; (endpoint: mean survival time, dose: 600.0 mg/kg/injection, schedule: Q01DX005 (ip), vehicle: saline) 119 % of control; (endpoint: median survival time, dose: 12.5 mg/kg/injection, schedule: Q01DX009 (ip), vehicle: saline) 121 % of control. The T/C runs as follows: (endpoint: median survival time, dose: 25.0 mg/kg/injection, schedule: Q01DX009 (ip), vehicle: saline) 172 % of control; (endpoint: median survival time, dose: 75.0 mg/kg/injection, schedule: Q01DX009 (ip), vehicle: saline) 113 % of control.

As for `N/C(=N/O)c1cn(C2OC(CO)C(O)C2O)c2nc[nH]c(=O)c12` (configuration not stated), the T/C (endpoint: mean survival time, dose: 75.0 mg/kg/injection, schedule: Q01DX001 (ip), vehicle: water) was 119 % of control.

With `O=C(OCC1OC(n2nc(SCc3ccccc3)c(=S)[nH]c2=O)C(OC(=O)c2ccccc2)C1OC(=O)c1ccccc1)c1ccccc1` (configuration not stated), the T/C is, setting by setting: (endpoint: mean survival time, dose: 12.5 mg/kg/injection, schedule: Q01DX005 (ip), vehicle: distilled water + Tween-80) 101 % of control; (endpoint: mean survival time, dose: 25.0 mg/kg/injection, schedule: Q01DX005 (ip), vehicle: distilled water + Tween-80) 95 % of control; (endpoint: mean survival time, dose: 50.0 mg/kg/injection, schedule: Q01DX005 (ip), vehicle: distilled water + Tween-80) 102 % of control; (endpoint: mean survival time, dose: 100.0 mg/kg/injection, schedule: Q01DX005 (ip), vehicle: distilled water + Tween-80) 93 % of control; (endpoint: mean survival time, dose: 200.0 mg/kg/injection, schedule: Q01DX005 (ip), vehicle: distilled water + Tween-80) 95 % of control.

On to `CC1(C)C2CC=C(CC3CC(=O)OC3=O)C1C2` (configuration not stated), for which the T/C reads like this: (endpoint: mean survival time, dose: 75.0 mg/kg/injection, schedule: Q01DX001 (ip), vehicle: other) 97 % of control; (endpoint: mean survival time, dose: 150.0 mg/kg/injection, schedule: Q01DX001 (ip), vehicle: other) 102 % of control; (endpoint: mean survival time, dose: 300.0 mg/kg/injection, schedule: Q01DX001 (ip), vehicle: other) 108 % of control.

Take `O/N=C1\c2ccccc2-c2ccc(F)cc21`: the T/C is, setting by setting: (endpoint: mean survival time, dose: 50.0 mg/kg/injection, schedule: Q01DX001 (ip), vehicle: carboxymethylcellulose (CMC)) 104 % of control; (endpoint: mean survival time, dose: 100.0 mg/kg/injection, schedule: Q01DX001 (ip), vehicle: carboxymethylcellulose (CMC)) 108 % of control; (endpoint: mean survival time, dose: 200.0 mg/kg/injection, schedule: Q01DX001 (ip), vehicle: carboxymethylcellulose (CMC)) 104 % of control; (endpoint: mean survival time, dose: 400.0 mg/kg/injection, schedule: Q01DX001 (ip), vehicle: carboxymethylcellulose (CMC)) 102 % of control.

Take `CN(C)NC(=O)CC(N)C(=O)O` (configuration not stated): the T/C under setting [4] is 101 % of control, the T/C under setting [5] is 101 % of control and the T/C under setting [6] is 102 % of control.

Regarding `O=C1OC(c2ccccc2)(C2(c3ccccc3)OC(=O)c3ccccc32)c2ccccc21` (configuration not stated), the T/C under setting [4] is 89 % of control.

As for `BrCN(CBr)c1ccc2c(c1)Cc1cc(Br)ccc1-2`, the T/C under setting [9] is 100 % of control, the T/C under setting [10] is 101 % of control and the T/C under setting [11] was 103 % of control.

As to `NC(=Nc1ccccc1)SCCS(=O)(=O)O`, the T/C is 102 % of control under setting [4], 100 % of control under setting [5] and 104 % of control under setting [6].

As to `COc1cc(C(=O)C=C(C(F)(F)F)C(F)(F)F)cc(OC)c1OC`, the T/C was 101 % of control under setting [4] and 98 % of control under setting [5].

For the molecule `Nc1nc2c(c(=O)[nH]1)CN(c1ccc(Cl)cc1)C2`, the T/C runs as follows: under setting [12], 98 % of control; under setting [13], 104 % of control; under setting [14], 93 % of control.

As to `Cc1c[n+](Cc2ccccc2)ccn1`, the T/C under setting [12] is 102 % of control, the T/C under setting [13] was 102 % of control and the T/C under setting [14] was 98 % of control.

For `CC(=O)c1cc(Br)cc(Br)c1O`, the T/C runs as follows: (endpoint: mean survival time, dose: 100.0 mg/kg/injection, schedule: Q01DX001 (ip), vehicle: saline) 96 % of control; (endpoint: mean survival time, dose: 200.0 mg/kg/injection, schedule: Q01DX001 (ip), vehicle: saline) 100 % of control; (endpoint: mean survival time, dose: 400.0 mg/kg/injection, schedule: Q01DX001 (ip), vehicle: saline) 96 % of control.
